Measured values published in ChEMBL document CHEMBL1127213, “Design of potent K+ channel openers by pharmacophore model” (Bioorg Med Chem Lett, 1993).
pEC50: −log10 of the molar value.

Experiments:
[1] = species on record: Rattus norvegicus; assay: Percent intrinsic activity was measured in rat aorta; assay type: functional
[2] = species on record: Rattus norvegicus; assay: Negative logarithm of the molar concentration of compound required to relax rat aorta precontracted with 30 mM KCl by 50%; assay type: functional

| Compound | IA [1] | pEC50 [2] |
| --- | --- | --- |
| C/N=C(/S)C1=CC(C)(C)Oc2ccc(C#N)cc21 | 89% |  |
| C/N=C(/NC#N)C1=CC(C)(C)Oc2ccc(C#N)cc21 | 73% | 6.47 |
| CC1(C)Oc2ccc(C#N)cc2[C@@H](N2CCCC2=O)[C@@H]1O [CROMAKALIM] | 74.7% |  |
| CC(C)(C)/N=C(/NC#N)Nc1cccnc1 | 88% | 7.04 |
| CNC(=O)C1=CC(C)(C)Oc2ccc(C#N)cc21 | 66.6% | 6.58 |
| CC(N/C(=N\C#N)Nc1ccncc1)C(C)(C)C (stereo not given) [PINACIDIL ANHYDROUS] | 91.9% | 6.14 |
